Source: publication PMC9714824, “Hexapeptides from mammalian inhibitory hormone hunt activate and inactivate nematode reproduction” (PLOS ONE, 2022)

Legend:
[1] = tested on: circulating levels of the anterior pituitary hormones LH, GH and PRL; assay: Intracerebroventricular infusion in sheep, RIA of circulating pituitary hormones; format: in vivo, Ovis aries; details: for GH, percentage difference between After and Before / LH, percentage difference between After and Before / PRL, percentage difference between After and Before: ICV 100 μg/h for 24h; for GH, After / LH, After / PRL, After: last 6h of ICV infusion, 100 μg/h for 24h, one sheep, RIA, mean +/− SEM
Experimental: A sheep study involved randomly selected Corriedale ewes (Ovis aries) of typically 5–6 years of age maintained under natural conditions at the Monash University Sheep Facility, Werribee, Victoria, Australia. EPL001 and EPL030 were subject to intracerebroventricular (ICV) infusion separately in vivo via a permanent cannula into the third ventricle of the brains of one sheep each at 100 μg/h for 24h. The zone that forms the floor of the third ventricle is that part of the hypothalamus called the median eminence. This is the anatomical interface between the brain and the anterior pituitary. Immunostaining in the ovine median eminence, in the form of axonal beading, has been reported with an anti-EPL001 antibody. The aim here was to evaluate the impact on the ovine hypothalamic-pituitary axis of infusion from above the hypothalamus. Circulating levels of the anterior pituitary hormones LH (luteinising hormone), GH (growth hormone) and PRL (prolactin) were measured by radioimmunoassay (RIA) prior to and in the closing stages of infusion. Systemic blood samples from an indwelling jugular venous cannula were taken at 10 min intervals for 6h prior to infusion (‘Before’) and over the last 6h of infusion (‘After’).

Caenorhabditis elegans = details: 1μM per day into the aqueous medium; cited from earlier work
Source text: As a control compound there was synthesized EPL030, having the aa sequence KLKMNGKNIEPVFT. This is a scrambling of EPL001’s sequence, based on cards drawn at random by one of us (CRM). […] The figures for fecundity were EPL001 +43 ... || Returning to EPL030, the scrambled-sequence EPL001 comparator, this has engendered perplexity by displaying the same activity as EPL001 across multiple mammalian systems. Thus, EPL030 suppressed human prostate cancer cells in vitro more than EPL001 in two laboratories and the proliferation of rat bone marrow cells in vitro in a third.

[2] = tested on: MCF-7 human breast adenocarcinoma xenografts; assay: MCF-7 xenograft study with untreated control (second study); format: in vivo, nude mice; details: for Tumour growth delay compared to controls: in words; for Max % weight loss / Median RTV2 / Growth delay: second study; for Max % weight loss: 100mg/kg/day i.p.; for Median RTV2: 100mg/kg/day i.p. days 0-17, n=8; for Growth delay: vs untreated control
Experimental: The MCF-7 human breast adenocarcinoma model was selected for xenograft studies. […] An oestrogen pellet was implanted subcutaneously in the dorsal area 24 hours prior to 2-3mm^3 fragments of MCF-7 tumour taken from donor tumours transplanted subcutaneously in the abdominal flanks of the efficacy study mice. Once tumour volumes reached approximately 32 mm^3 (as measured by calipers, designated treatment Day 0) mice were randomised into one of three groups (n = 8) as follows: EPL001 or EPL030 at 100 mg/kg/day administered i.p. on […], plus a peptide-untreated (PBS only) control group. Tumour volume, using calipers, and animal body weight were recorded throughout the experiment and normalised to the respective tumour volume on the initial day of treatment (Day 0). Mann-Whitney U tests were conducted to determine the statistical significance of any differences in growth rate (based on tumour volume doubling time) between control and treated groups.
(§1) The MCF-7 human breast adenocarcinoma model was selected for two xenograft studies. An oestrogen pellet was implanted subcutaneously in the dorsal area 24 hours prior to 2-3mm^3 fragments of MCF-7 tumour taken from donor tumours transplanted subcutaneously in the abdominal flanks of the efficacy study mice. Once tumour volumes reached approximately 32 mm^3 (as measured by calipers, designated treatment day 0) mice were randomised into treatment groups (n=8).
In the second study three groups were used as follows: EPL001 or EPL030 at 100mg/kg/day administered i.p. on days 0-17, plus an untreated control group.
(§2) Tumour volume, using calipers, and animal body weight were recorded throughout the experiment and normalised to the respective volume on the initial day of treatment (day 0). Mann-Whitney U tests were conducted to determine the statistical significance of any differences in growth rate (based on tumour volume doubling time) between control and treated groups.

[3] = tested on: MCF-7 human breast adenocarcinoma xenografts; assay: MCF-7 xenograft precursor study (first study); format: in vivo, nude mice; details: for Max % weight loss: 100mg/kg/day i.p.; for Median RTV2: 100mg/kg/day i.p. on 15 days between days 0 and 20, n=8
Experimental: as §1
In the first study four groups were used as follows: EPL001 or EPL030 at 100mg/kg/day administered i.p. on days 0, 1, 4, 5, 6, 7, 8, 11, 12, 13, 14, 15, 18, 19 and 20, plus a mouse anti-EPL001 monoclonal antibody or a control antibody directed at mouse haemocytes at 4mg/kg/day administered i.p. on days 0, 1, 2, 3, 4, 7, 8, 9, 10, 11, 14, 15, 16, 17 and 18 .
as §2

[4] = Toxicity study in immunodeficient nude mice; format: in vivo, female Balb/c immunodeficient nude mice; details: for Toxicity: in words; for Maximum weight loss compared to Day 0: groups of 2 mice
Experimental: For toxicity studies female Balb/c immunodeficient nude mice were used (B & K Universal, Hull, UK), aged 6–8 weeks old. They were housed in cages in isolation cabinets in an air-conditioned room with regular alternating cycles of light and darkness and received Teklad 2018 (Envigo) diet and water ad libitum. EPL001 and EPL030 in PBS at pH7.4 were administered to groups of 2 mice intraperitoneally (i.p.) daily on Days 0–4 at 500 mg/kg/dose and then 1000 mg/kg/dose. Following treatment, body weight was measured on a regular basis, and behaviour and general appearance monitored visually to assess for deleterious effects (e.g. dehydration, impaired mobility, hunched posture, low body temperature, ulceration and significant body weight loss), with any effects during the study recorded. […] If no deleterious effects were seen after at least 16 days of study, then the animals were sacrificed, with the dose considered non-toxic.
For toxicity studies female Balb/c immunodeficient nude mice were used (B & K Universal, Hull, UK), aged 6-8 weeks old. They were housed in cages in isolation cabinets in an air-conditioned room with regular alternating cycles of light and darkness and received Teklad 2018 (Envigo) diet and water ad libitum. EPL001 and EPL030 in PBS at pH7.4 were administered to groups of 2 mice intraperitoneally (i.p.) daily on days 0-4 at 500mg/kg/dose and then 1000mg/kg/dose. Following treatment, body weight was measured on a regular basis, and behaviour and general appearance monitored visually to assess for deleterious effects (e.g. dehydration, impaired mobility, hunched posture, low body temperature, ulceration and significant body weight loss), with any effects during the study recorded.

[5] = 500mg/kg/day ip Days 0 to 4, on Day 2
[6] = 1000mg/kg/day ip Days 0 to 4, EPL030 on Day 3, EPL001 on Day 1

KLKMNGKNIEPVFT [EPL030, …, scrambled EPL001 control]
GH, percentage difference between After and Before [1]: +43.8% | LH, percentage difference between After and Before [1]: +7.4% | PRL, percentage difference between After and Before [1]: −23.8% | GH, After [1]: 7.82 ± 0.80 ng/mL | LH, After [1]: 12.89 ± 3.78 ng/mL | PRL, After [1]: 107.03 ± 18.92 ng/mL | Fecundity (number of eggs), cumulative totals vs untreated controls (Caenorhabditis elegans): −64% | Lifespan, average vs untreated controls (Caenorhabditis elegans): +23% | Tumour growth delay compared to controls ([2]; 100 mg/kg/day i.p., n = 8): no statistically significant tumour growth delay | Tumour growth at termination compared with PBS-only controls ([2]; 100 mg/kg/day i.p., n = 8, ns): −20.2% | Max % weight loss [2]: 2.4% | Median RTV2 [2]: 3.6 days | Growth delay [2]: 0.1 days | Max % weight loss [3]: 1.2% | Median RTV2 [3]: 7.3 days | Toxicity ([4]; 500mg/kg/day ip Days 0 to 4): No discernible toxicity | Maximum weight loss compared to Day 0 [4, 5]: 4.0% | Maximum weight loss compared to Day 0 [4, 6]: 7.0% | Toxicity ([4]; 1000mg/kg/day ip Days 0 to 4): no discernible signs of toxicity

MKPLTGKVKEFNNI [EPL001, 14mer master test peptide …; ovine provenance]
GH, percentage difference between After and Before [1]: +25.4% | LH, percentage difference between After and Before [1]: +13.4% | PRL, percentage difference between After and Before [1]: −28.5% | GH, After [1]: 3.41 ± 0.63 ng/mL | LH, After [1]: 6.48 ± 0.90 ng/mL | PRL, After [1]: 95.14 ± 21.62 ng/mL | Fecundity (number of eggs), cumulative totals vs untreated controls (Caenorhabditis elegans): +43% | Lifespan, average vs untreated controls (Caenorhabditis elegans): +18% | Tumour growth delay compared to controls ([2]; 100 mg/kg/day i.p., n = 8): no statistically significant tumour growth delay | Max % weight loss [2]: 0% | Median RTV2 [2]: 4.6 days | Growth delay [2]: 1.1 days | Max % weight loss [3]: 3.6% | Median RTV2 [3]: 7.7 days | Growth delay ([3]; EPL001 versus EPL030): 0.4 days | Toxicity ([4]; 500mg/kg/day ip Days 0 to 4): No discernible toxicity | Maximum weight loss compared to Day 0 [4, 5]: 5.0% | Maximum weight loss compared to Day 0 [4, 6]: 3.5% | Toxicity ([4]; 1000mg/kg/day ip Days 0 to 4): no discernible signs of toxicity
